Assays:
[1] = system: primary mouse hepatocytes; experiment: Gene expression (Affymetrix Mouse Genome 430 2.0) in primary mouse hepatocytes, true vs false GTX, 24 h and 48 h
[2] = system: primary mouse hepatocytes
[3] = in vivo; cited from earlier work

Oc1cccc2cccnc12 [8Q, 8-Hydroxyquinoline]
Gene expression AA561726 average [1]: 0.1739 | Gene expression AF000969 average [1]: −0.1809 | Gene expression AF022072 average [1]: 0.0814 | Gene expression AF033112 average [1]: −0.01703 | Gene expression AF055573 average [1]: −0.09457 | Gene expression AF069954 average [1]: 0.1841 | Gene expression AF297615 average [1]: −0.009333 | Gene expression AF335325 average [1]: 0.1418 | Gene expression AI594683 average [1]: 0.1235 | Gene expression AI747296 average [1]: −0.0009667 | Gene expression AK005731 average [1]: −0.03997 | Gene expression AK007854 average [1]: 0.05973 | Gene expression AK010447 average [1]: 0.06223 | Gene expression AK010738 average [1]: 0.3608 | Gene expression AK014608 average [1]: −0.2447 | Gene expression AK017734 average [1]: 0.0878 | Gene expression AK018383 average [1]: 0.0679 | Gene expression AK019979 average [1]: −0.2154 | Gene expression AV095209 average [1]: 0.2602 | Gene expression AV141095 average [1]: −0.1725 | Gene expression AV173869 average [1]: −0.02557 | Gene expression AV216768 average [1]: 0.1679 | Gene expression AV219418 average [1]: 0.4492 | Gene expression AV221299 average [1]: 0.1454 | Gene expression AV246296 average [1]: −0.1136 | Gene expression AV251625 average [1]: 0.03813 | Gene expression AV254764 average [1]: 0.02403 | Gene expression AV327248 average [1]: 0.1176 | Gene expression BB009155 average [1]: 0.006467 | Gene expression BB027848 average [1]: −0.06607 | Gene expression BB043558 average [1]: −0.2347 | Gene expression BB046347 average [1]: 0.1608 | Gene expression BB140436 average [1]: 0.2861 | Gene expression BB204486 average [1]: 0.1305 | Gene expression BB223872 average [1]: 0.05753 | Gene expression BB246912 average [1]: 0.3325 | Gene expression BB275142 average [1]: 0.0112 | Gene expression BB458460 average [1]: 0.1317 | Gene expression BB463610 average [1]: −0.2369 | Gene expression BB730977 average [1]: 0.3298 | Gene expression BB743970 average [1]: 0.1936 | Gene expression BB770528 average [1]: −0.01823 | Gene expression BB781615 average [1]: −0.006367 | Gene expression BC003284 average [1]: 0.09 | Gene expression BC004827 average [1]: −0.07043 | Gene expression BC005552 average [1]: 0.1343 | Gene expression BC006713 average [1]: −0.1035 | Gene expression BC010318 average [1]: 0.0565 | Gene expression BC012247 average [1]: −0.006933 | Gene expression BC012955 average [1]: −0.3049 | Gene expression BC013893 average [1]: −0.1654 | Gene expression BC017615 average [1]: −0.4904 | Gene expression BC019379 average [1]: −0.1555 | Gene expression BC019882 average [1]: −0.1719 | Gene expression BC021352 average [1]: 0.4721 | Gene expression BC022148 average [1]: 0.04497 | Gene expression BC025169 average [1]: 0.02213 | Gene expression BC026131 average [1]: −0.0852 | Gene expression BC027026 average [1]: 0.2479 | Gene expression BC027121 average [1]: −0.1207 | Gene expression BC027185 average [1]: −0.1209 | Gene expression BE956581 average [1]: 0.403 | Gene expression BF719766 average [1]: −0.2717 | Gene expression BG065754 average [1]: −0.0909 | Gene expression BG066491 average [1]: −0.1771 | Gene expression BG076151 average [1]: −0.1887 | Gene expression BG076333 average [1]: −0.05333 | Gene expression BG797099 average [1]: 0.0658 | Gene expression BG967046 average [1]: −0.09257 | Gene expression BI651416 average [1]: 0.06777 | Gene expression BI966443 average [1]: 0.1335 | Gene expression BM198879 average [1]: −0.05617 | Gene expression BM200015 average [1]: 0.08087 | Gene expression BM230508 average [1]: 0.07603 | Gene expression BM936480 average [1]: 0.0483 | Gene expression BQ174991 average [1]: −0.1546 | Gene expression L21027 average [1]: 0.2905 | Gene expression NM_007556 average [1]: 0.0638 | Gene expression NM_007980 average [1]: −0.5064 | Gene expression NM_007987 average [1]: 0.03487 | Gene expression NM_008522 average [1]: 0.0486 | Gene expression NM_008935 average [1]: 0.4082 | Gene expression NM_009897 average [1]: 0.111 | Gene expression NM_011075 average [1]: 0.1618 | Gene expression NM_011176 average [1]: 0.1358 | Gene expression NM_011316 average [1]: 0.06377 | Gene expression NM_012006 average [1]: 0.5806 | Gene expression NM_013642 average [1]: 0.2659 | Gene expression NM_013738 average [1]: −0.305 | Gene expression NM_013929 average [1]: 0.033 | Gene expression NM_018881 average [1]: −0.1679 | Gene expression NM_019738 average [1]: −0.9543 | Gene expression NM_030697 average [1]: −0.0261 | Gene expression NM_053122 average [1]: −0.142 | Gene expression NM_134147 average [1]: −0.1757 | Gene expression NM_134188 average [1]: −0.07067 | Gene expression X62701 average [1]: 0.154 | Gene expression data AF000969 (Cadps2) [1]: −0.3717 | Gene expression data AF022072 (Grb10) [1]: −0.4275 | Gene expression data AF065917 (Lif) [1]: −0.2101 | Gene expression data AF297615 (Ggta1) [1]: −0.0684 | Gene expression data AI594683 (Dmn) [1]: −0.09783 | Gene expression data AI596632 (Ptprg /// LOC632664) [1]: −0.227 | Gene expression data AI987929 (Ndrg1) [1]: 0.4414 | Gene expression data AK004419 (Fbxl17) [1]: 0.01113 | Gene expression data AK005731 (1700007K13Rik) [1]: 0.1143 | Gene expression data AK007766 (1810044A24Rik) [1]: −0.0226 | Gene expression data AK007854 (1810053B23Rik) [1]: −0.076 | Gene expression data AK009736 (Gpr137b /// LOC664862 /// LOC673335) [1]: 0.5337 | Gene expression data AK010447 (Smyd3) [1]: 0.07697 | Gene expression data AK014608 (4632434l11Rik) [1]: −0.1225 | Gene expression data AK019979 (2610528E23Rik) [1]: 0.08447 | Gene expression data AV095209 (Mthfd1l) [1]: 0.1564 | Gene expression data AV141095 (1110033M05Rik) [1]: −0.07047 | Gene expression data AV173571 (1700106N22Rik) [1]: 0.04197 | Gene expression data AV219418 (Ldhb) [1]: 0.0363 | Gene expression data AV223474 (Zdhhc14) [1]: −0.06957 | Gene expression data AV298304 (Homez) [1]: −0.03607 | Gene expression data AV327248 (Zfp365 /// LOC674611) [1]: −0.082 | Gene expression data AV377066 (9130221J18Rik) [1]: −0.3212 | Gene expression data AW240761 (Tbc1d5) [1]: −0.2006 | Gene expression data AW543460 (Pard3) [1]: −0.0366 | Gene expression data AW543723 [1]: −0.0994 | Gene expression data AW986246 (Maoa) [1]: 0.3198 | Gene expression data BB027848 (4732466D17Rik) [1]: −0.2807 | Gene expression data BB043558 (9230114K14Rik) [1]: −0.3734 | Gene expression data BB275142 (AW456874) [1]: −0.02507 | Gene expression data BB308836 (Ppm1l) [1]: 0.2558 | Gene expression data BB318221 (Zdhhc14) [1]: 0.1138 | Gene expression data BB463610 (4632434l11Rik) [1]: −0.2188 | Gene expression data BB526605 (Mipol1) [1]: −0.01453 | Gene expression data BB770528 (Rai2) [1]: 0.1386 | Gene expression data BB821363 (Scfd2) [1]: 0.1765 | Gene expression data BC004827 (Psat1) [1]: −0.1011 | Gene expression data BC008626 (Icam1) [1]: −0.4422 | Gene expression data BC010462 (BC010462) [1]: 0.05663 | Gene expression data BC012247 (Dcxr) [1]: −0.0122 | Gene expression data BC012260 (Psmf1) [1]: 0.2545 | Gene expression data BC015270 (Hist2h3c2) [1]: −0.03353 | Gene expression data BC016073 (Cdkal1) [1]: −0.05183 | Gene expression data BC016265 (Ube2e2) [1]: −0.2547 | Gene expression data BC019882 (Acaa1b) [1]: 0.0605 | Gene expression data BC025501 (Aaas) [1]: 0.1979 | Gene expression data BC025837 (Sbk1) [1]: −0.04227 | Gene expression data BC025915 (Cova1) [1]: −0.02643 | Gene expression data BC026422 (Tgm1) [1]: 0.2873 | Gene expression data BF719766 (Thyn1) [1]: −0.1935 | Gene expression data BG065754 (Ccng1) [1]: −0.2279 | Gene expression data BG066903 (Kif16b) [1]: −0.1277 | Gene expression data BG069873 (Gnb1l) [1]: −0.04763 | Gene expression data BG070887 (Gtdc1) [1]: −0.04273 | Gene expression data BG076151 (Ppm1d) [1]: 0.07243 | Gene expression data BG261907 (Large) [1]: −0.1486 | Gene expression data BI651416 (Cdc42bpg) [1]: 0.1364 | Gene expression data BI660702 (Ell3) [1]: 0.05113 | Gene expression data BM198879 (Ercc5) [1]: −0.006767 | Gene expression data BM230508 (A030007D23Rik) [1]: 0.03497 | Gene expression data NM_007987 (Fas) [1]: −0.05523 | Gene expression data NM_008522 (Ltf) [1]: −0.05963 | Gene expression data NM_008576 (Abcc1) [1]: 0.106 | Gene expression data NM_011176 (St14) [1]: 0.05783 | Gene expression data NM_011316 (Saa4) [1]: 0.0831 | Gene expression data NM_012006 (Acot1) [1]: −0.2532 | Gene expression data NM_013866 (Zfp385) [1]: 0.05893 | Gene expression data NM_018770 (Igsf4a) [1]: 0.1391 | Gene expression data NM_021451 (Pmaip1) [1]: −0.5295 | Gene expression data NM_025770 (Atg10) [1]: −0.1372 | Gene expression data NM_028803 (Gbe1) [1]: −0.04593 | Gene expression data NM_030697 (Ankrd47) [1]: 0.2204 | Gene expression data NM_053168 (Trim11) [1]: −0.0493 | Gene expression data NM_134188 (Acot2) [1]: −0.2881 | Gene expression data Y15910 (Diap2) [1]: −0.2692 | Gene expression data AF204959 (Cyp3a25 /// LOC622249) [2]: −0.4178 | GTX in vivo [3]: −

Source: patent US20120122727A1, “IN VITRO METHOD FOR PREDICTING WHETHER A COMPOUND IS GENOTOXIC IN VIVO” (priority 2009, published 2012)
